For experiment [1], the system named is MDA-MB-231. Briefly: Antiproliferative activity against ER negative human MDA-MB-231 cells assessed as inhibition of cell growth after 48 hrs by MTT assay. Format: functional, cell-based. The conditions noted are these: MDA-MB-231, 48 h. Background: Formazan colour is commonly taken as a measure of viable cells.
Experiment [2] concerns HeLa. Briefly: Antiproliferative activity against human HeLa cells assessed as inhibition of cell growth after 48 hrs by MTT assay. Format: functional, cell-based.
Experiment [3] relates to MRC5. Briefly: Antiproliferative activity against human MRC5 cells assessed as inhibition of cell growth after 48 hrs by MTT assay. The experiment is classed as functional, cell-based. To be noted: MRC5, 48 h.
For experiment [4], the system named is HT-29. Briefly: Antiproliferative activity against human HT-29 cells assessed as inhibition of cell growth after 48 hrs by MTT assay. The experiment is classed as functional, cell-based. The conditions noted are these: HT-29, 48 h.
The test system of experiment [5] is MCF7. The experiment is described as follows: Antiproliferative activity against ER positive human MCF7 cells assessed as inhibition of cell growth after 48 hrs by MTT assay. Format: functional, cell-based. The conditions noted are these: MCF7, 48 h.
Experiment [6] has as its system A549. Briefly: Antiproliferative activity against human A549 cells assessed as inhibition of cell growth after 48 hrs by MTT assay. Format: functional, cell-based. The conditions noted are these: A549, 48 h.
The nature of experiment [7]: Antiproliferative activity against human PC3 cells assessed as inhibition of cell growth after 48 hrs by MTT assay. To be noted: PC-3, 48 h. Format: functional, cell-based.
For experiment [8], the system named is MCF7. The experiment is described as follows: Cell cycle arrest in human MCF7 cells assessed as cells accumulation at subG1 phase at IC50 concentration after 48 hrs by flow cytometry (Rvb =1.83 %). The experiment is classed as functional. In general terms: Flow cytometry measures light scatter and fluorescence of single cells or particles in a stream.
In experiment [9] the test system is MCF7. The experiment is described as follows: Cell cycle arrest in human MCF7 cells assessed as cells accumulation at G2/M phase at IC50 concentration after 48 hrs by flow cytometry (Rvb =21.32 %). The experiment is classed as functional.
The subject of experiment [10] is MCF7. The experiment is described as follows: Cell cycle arrest in human MCF7 cells assessed as cells accumulation at G0/G1 phase at IC50 concentration after 48 hrs by flow cytometry (reference value: 47.55%). Format: functional.
The subject of experiment [11] is MCF7. The experiment is described as follows: Cell cycle arrest in human MCF7 cells assessed as cells accumulation at S phase at IC50 concentration after 48 hrs by flow cytometry (reference value: 29.30%). Format: functional.
Experiment [12] relates to MCF7. Briefly: Induction of apoptosis in human MCF7 cells assessed as apoptotic morphological changes at IC50 concentration after 48 hrs by light microscopy. The experiment is classed as functional.

The structures appear in SMILES notation.

With `C[C@]12CCC(=O)C=C1CC[C@@H]1[C@@H]2CC[C@]2(C)/C(=C/c3ccccn3)CC[C@@H]12`, the IC50 in experiment [1], in [2], in experiment [3], in experiment [4], in experiment [5] and in [6] was over 100 µM each time.
For `C[C@]12C/C(=N\O)C(=O)c3noc(c31)C[C@@H]1[C@@H]2CC[C@@]2(C)[C@H]1CC[C@@]2(O)Cc1ccccn1`, the IC50 in experiment [1] is 50.4 µM; in [2] it was over 100 µM; in experiment [7] it was 6.6 µM; in experiment [3], over 100 µM; in experiment [4], over 100 µM; in experiment [5] it was 25.3 µM. In experiment [6], the IC50 is over 100 µM.
On to `C[C@]1(CC#N)C(C#N)=CC[C@@H]2[C@@H]1CC[C@@]1(C)[C@H]2CC[C@@]1(O)Cc1ccccn1`, for which the IC50 in experiment [1] was 7.9 µM; in [2], over 100 µM; in experiment [7], 31.5 µM; in experiment [3] it was over 100 µM; in experiment [4] it was 71.8 µM; in experiment [5], 18.2 µM. In addition, the IC50 in experiment [6] is over 100 µM. Besides, the Activity in experiment [8] turned out to be 1.48%; in experiment [9], 21.12%; in [10] it was 46.06%; in [11], 31.34%.
As for `C[C@]12CCC(=O)C(O)=C1CC[C@@H]1[C@@H]2CC[C@]2(C)C(=O)CC[C@@H]12` [FORMESTANE], the IC50 in experiment [1] was over 100 µM; in experiment [7], 48.4 µM; in experiment [3], over 100 µM; in experiment [4], over 100 µM; in experiment [5], 55.5 µM; in experiment [6], over 100 µM. Moreover, the Activity in experiment [8] was determined as 1.18%; in [9], 24.54%; in experiment [12] it was 11.5%; in [10] it was 54.8%; in experiment [11], 19.48%.
As for `C[C@]12C/C(=C/O)C(=O)C=C1CC[C@@H]1[C@@H]2CC[C@]2(C)/C(=C/c3ccccn3)CC[C@@H]12`, the IC50 in experiment [1], in [2], in experiment [7], in [3], in experiment [4] and in experiment [5] was over 100 µM each time. The concentration for half-maximal inhibition (IC50) in experiment [6] is over 100 µM.
For the molecule `C[C@]12CCNC(=O)C=C1CC[C@@H]1[C@@H]2CC[C@]2(C)/C(=C/c3ccccn3)CC[C@@H]12`, the IC50 in experiment [1] was 12.7 µM; in [2] it was over 100 µM; in experiment [7], 60.1 µM; in [3], over 100 µM; in [4], over 100 µM; in experiment [5], 32.2 µM. Also, the IC50 in experiment [6] came to 19.8 µM.
As for `C[C@]12CC[C@H](O)CC1=CC[C@@H]1[C@@H]2CC[C@]2(C)/C(=C/c3ccccn3)CC[C@@H]12`, the IC50 in [1], in experiment [2], in [7], in experiment [3], in experiment [4] and in experiment [5] was over 100 µM in each case. For the same molecule, in experiment [6], the IC50 was over 100 µM.
Regarding `C[C@]12C/C(=C/O)C(=O)C=C1CC[C@@H]1[C@@H]2CC[C@@]2(C)[C@H]1CC[C@@]2(O)Cc1ccccn1`, the IC50 was 19 µM in experiment [1]; over 100 µM in [2]; over 100 µM in experiment [7]; over 100 µM in [3]; over 100 µM in experiment [4]; 34.4 µM in experiment [5]. In experiment [6], the IC50 was over 100 µM.
On to `C[C@]12CCC(=O)C=C1CC[C@@H]1[C@@H]2CC[C@@]2(C)[C@H]1CC[C@@]2(O)Cc1ccccn1`, for which the IC50 is over 100 µM in experiment [1]; 57.8 µM in [2]; over 100 µM in experiment [7]; over 100 µM in [3]; over 100 µM in [4]; over 100 µM in [5]. Moreover, the half-maximal inhibitory concentration (IC50) in [6] turned out to be 57.5 µM.
Take `C[C@]12CC[C@H](O)CC1=CC[C@@H]1[C@@H]2CC[C@@]2(C)[C@H]1CC[C@@]2(O)Cc1ccccn1`: the IC50 in experiment [1] is over 100 µM; in [2], 75.2 µM; in experiment [7] it was 6.3 µM; in experiment [3], over 100 µM; in experiment [4], 48.2 µM; in experiment [5] it was 96.1 µM. The IC50 in [6] was over 100 µM.
Consider `COc1cccc2c1C(=O)c1c(O)c3c(c(O)c1C2=O)C[C@@](O)(C(=O)CO)C[C@@H]3O[C@H]1C[C@H](N)[C@H](O)[C@H](C)O1` [DOXORUBICIN], for which the IC50 stood at 0.75 µM in [1], 7.86 µM in experiment [4], 0.12 µM in [5] and 0.32 µM in experiment [6].
For the molecule `C[C@]12C/C(=N/O)C(=O)/C(=N\O)C1=CC[C@@H]1[C@@H]2CC[C@@]2(C)[C@H]1CC[C@@]2(O)Cc1ccccn1`, the IC50 in experiment [1] was 1.7 µM; in experiment [2], 81.8 µM; in experiment [7], 8.7 µM; in experiment [3] it was over 100 µM; in experiment [4] it was 56 µM; in [5] it was 40.1 µM. Besides, in experiment [6], the IC50 came out at 10.3 µM. For the same molecule, the Activity in [8] is 2.08%; in experiment [9], 21.23%; in experiment [12] it was 12.2%; in experiment [10], 47.66%; in [11], 29.03%.
Turning to `C[C@]12C/C(=N/O)C(=O)C=C1CC[C@@H]1[C@@H]2CC[C@@]2(C)[C@H]1CC[C@@]2(O)Cc1ccccn1`, the IC50 is over 100 µM in experiment [1]; over 100 µM in experiment [2]; over 100 µM in [7]; over 100 µM in experiment [3]; over 100 µM in [4]; 51.3 µM in experiment [5]. For the same molecule, the IC50 in experiment [6] was over 100 µM.

What is called IC50 is the concentration that gives 50% inhibition.

The values are drawn from ChEMBL document CHEMBL3400025, “Synthesis, structural analysis and antitumor activity of novel 17α-picolyl and 17(E)-picolinylidene A-modified androstane derivatives” (Bioorg Med Chem, 2015).
